{"source": "patent US12613249B2", "about": "(THE ROYAL INSTITUTION FOR THE ADVANCEMENT OF LEARNING / …, priority 2019, dated 2026)", "type_in_all_cases": "in vivo, C57BL/6 mice", "key": {"[1]": {"assay": "MALDI-TOF-MSI brain distribution", "settings": "single oral dose 10 mg/kg, 4 h post-administration, sagittal brain sections", "description": "Frozen brains were stored at −80° C. until needed for analysis. Serial sagittal brain sections (10 μm thick) obtained using a cryostat (Leica Microsystems CM1100, Wetzlar, Germany), were thaw mounted onto an indium tin oxide (ITO) coated glass slide (Bruker, Bremen, Germany). Glass slides were removed from deep freeze and immediately transferred to a vacuum desiccator. Following 12 h desiccation time, the slides were scanned using a flatbed scanner (HP LaserJet 3055). The α-cyano-4-hydroxy cinnamic acid (CHCA) matrix (10 mg/mL) was prepared in 50% acetonitrile (ACN) containing 0.1% trifluoroacetic acid (TFA). The matrix solution was sonicated for 10 min and centrifuged at 10 000 rpm for 10 min before transfer to the ImagePrep (Bruker Daltonics). […] A standard solution of D-AIP (1 μg/mL was analyzed using matrix assisted laser desorption ionization time of flight mass spectrometry (MALDI TOF MS) operated both at reflectron and MALDI MS/MS (LIFT) modes respectively with the aid of the UltraflExtreme MALDI TOF/TOF 2 KHz smartbeam laser (Bruker Daltonics, Bremen, Germany) and FlexControl acquisition software ran in positive ion mode. The instrument was calibrated using standard peptide mix spotted with CHCA matrix on the ground steel target (Bruker Daltonics, Bremen, Germany) for 500-1500 m/z. Each spectrum was acquired from 500 laser shots. […]"}, "[2]": {"assay": "Brain homogenate concentrations after single oral dose, LC-MS", "settings": "for maximum brain concentration / peak brain concentration: brain homogenate; for maximum brain concentration / time of maximum brain concentration: female mice", "description": "(§1) An internal standard (IS) for the reliable quantification of D-AIP in biological matrices was prepared by dimethylation to produce an analog of D-AIP by using a protocol previously described (Boersema et al., 2009, Nat Protoc, 4:484-494). Standard solutions (1 mg/mL) each of D-AIP and IS were prepared in deionized water and 100% methanol respectively. 100 μL of IS working solution was prepared at 50 ng/ml added to 25 μL of the sample (plasma or brain homogenate). The sample was vortexed for approximately 5 s and let stand for 10 min, then centrifuged at 16,000 g for 10 min. The supernatant was transferred to a 13×100 polypropylene tube and evaporated to dryness at 50° C. under gentle stream of nitrogen. The dry extract was re-suspended with 40 μL of 0.1% (v/v) formic acid (Sigma Aldrich, St-Louis, MO, USA) in deionized water and transferred to an injection vial for analysis.\n(§2) Thermo Scientific TSQ Quantiva Triple Quadrupole mass spectrometer (San Jose, CA, USA) was interfaced with the Thermo Scientific UltiMate 3000 XRS UHPLC system (San Jose, CA, USA) using a pneumatic assisted heated electrospray ion source. Data acquisition and analysis were performed using Xcalibur 4.0 (San Jose, CA, USA).\n(§3) […]radient elution was used with a Thermo Scientific BioBasic-8 column (100×2 mm I.D. 5 μm) operating at 40° C. The initial mobile phase condition consisted of 0.1% formic acid in acetonitrile and 0.1% formic acid in deionized water at a ratio of 5:95, respectively and this ration was maintained for 1 min. A linear gradient was applied from 1 to 5 min up to a ratio of 50:50 and maintained for 1 min. At 6.1 min, the mobile phase composition was reverted to 5:95 and the column was allowed to equilibrate for 7.9 min for a total run time of 14 min. The D-AIP and IS eluted at 4.7 and 4.8 min respectively at a fixed flow rate of 0.2 mL/min. The eluent was diverted to waste for the first minute and last six minutes. Extracted sample (5 μL) was injected and the acquisition time was set to 14 min.\n(§4) The mass spectrometer was interfaced with ultra-high-performance liquid chromatography (UHPLC) system using a pneumatic assisted heated electrospray ion source with detection in positive ion mode using […] (MRM). For proper optimization of the mass spectrometer, standard solutions of D-AIP and IS were infused. The obtained source parameters were 50 and 15 arbitrary units respectively while using nitrogen for the sheath and auxiliary gases. The HESI electrode was set to 3500 V, capillary and vaporizer temperature were both set to 300° C. respectively. The MS/MS parameters were optimized using the doubly charged species. Argon was used as collision gas at a pressure of 2.5 mTorr. The precursor-ion reaction for D-AIP were set to 471.4→[591.8+648.3] and for the IS the MRM transitions were set to 499.4→[425.8+468.8+476.8]\n(§5) Standard solution of D-AIP (1 mg/mL) was diluted in various volumes of deionized water to obtain series of standard working solutions. Calibration standards were prepared by fortifying the mouse plasma and mouse brain homogenate with the standard working solutions at 10% (v/v) to enable analytical concentration range of 1.00 to 1000 ng/ml. The method is linear using a linear regression weighted 1/x analysis, a value of R^2≥0.9979 was obtained for plasma and R^2≥0.9991 for brain homogenate. Samples were injected in duplicate with the calculated in each case and concentrations were processed from the equation obtained from the respective calibration curves using Xcalibur 4.0 software.\n(§6) Animal care and all animal experiments were undertaken with federal guidelines and approval of the Institutional Animal Ethical Committee of McGill University, Montreal, Canada (Protocol Application Number: 2017-7880) and adequate measures were taken to minimize pain or discomfort. […]"}, "[3]": {"assay": "Plasma pharmacokinetics after single oral dose, LC-MS", "settings": "for CL/F (apparent total clearance from plasma) / λz (elimination rate constant): plasma", "description": "as §1, §2, §3, §4, §5, §6"}, "[4]": {"settings": "female C57BL/6 mice, single oral dose 10 mg/kg"}, "[5]": {"settings": "female C57BL/6 mice, single oral dose 30 mg/kg"}, "[6]": {"settings": "female C57BL/6 mice, single oral dose 100 mg/kg"}, "[7]": {"settings": "male C57BL/6 mice, single oral dose 10 mg/kg"}, "[8]": {"settings": "male C57BL/6 mice, single oral dose 100 mg/kg"}}, "note": "“And” between values parts separate entries of the source, which are not always exact repeats. Equal entries are not always repeated. Square brackets hold non-standard residues; d marks the D form. Peptide text beside a SMILES is read from it.", "data": [{"smiles": "C[C@H](O)[C@@H](NC(=O)CNC(=O)[C@H](N)CCCNC(=N)N)C(=O)N[C@H](Cc1ccccc1)C(=O)N[C@H](CCC(=O)O)C(=O)NCC(=O)N[C@H](CCCCN)C(=O)N[C@H](Cc1ccccc1)C(=O)O", "note": "[D-AIP] (H-[dR]G[dT][dF][dE]G[dK][dF]-OH; N-terminus and C-terminus assumed)", "values": [{"measurement": "brain distribution", "setting": "[1]", "value": "distributed across cortex, hippocampus, thalamus and different other brain regions"}, {"measurement": "tissue level at time at 4 h", "setting": "[2]; C57BL/6, mouse, brain, male mice, highest dose (100 mg/kg oral), after 4 h, read-out: brain concentration during elimination", "value": 38.5, "unit": "ng/g"}, {"measurement": "maximum brain concentration", "setting": "[2]; single oral dose 10 mg/kg, at 4 h", "value": 28.91, "unit": "ng/g"}, {"measurement": "maximum brain concentration", "setting": "[2]; single oral dose 30 mg/kg, at 2 h", "value": 136.29, "unit": "ng/g"}, {"measurement": "maximum brain concentration", "setting": "[2]; single oral dose 100 mg/kg, at 2 h", "value": 707.95, "unit": "ng/g"}, {"measurement": "peak brain concentration", "setting": "[2]; male mice, single oral dose 10 mg/kg, at 4 h", "value": 133.15, "unit": "ng/g"}, {"measurement": "peak brain concentration", "setting": "[2]; male mice, single oral dose 30 mg/kg, at 2 h", "value": 262.00, "unit": "ng/g"}, {"measurement": "peak brain concentration", "setting": "[2]; male mice, single oral dose 100 mg/kg, at 0.5 h", "value": 509.24, "unit": "ng/g"}, {"measurement": "crossing of the BBB", "setting": "[2]; female and male mice, single oral doses 10, 30, 100 mg/kg", "value": "crossed the BBB and reached the brain"}, {"measurement": "time of maximum brain concentration", "setting": "[2]; single oral dose 10 mg/kg", "value": 4, "unit": "h"}, {"measurement": "time of maximum brain concentration", "setting": "[2]; single oral dose 30 mg/kg", "value": 2, "unit": "h"}, {"measurement": "time of maximum brain concentration", "setting": "[2]; single oral dose 100 mg/kg", "value": 2, "unit": "h"}, {"measurement": "time of peak brain concentration", "setting": "[2]; male mice, single oral dose 10 mg/kg", "value": 4, "unit": "h"}, {"measurement": "time of peak brain concentration", "setting": "[2]; male mice, single oral dose 30 mg/kg", "value": 2, "unit": "h"}, {"measurement": "time of peak brain concentration", "setting": "[2]; male mice, single oral dose 100 mg/kg", "value": 0.5, "unit": "h"}, {"measurement": "dose relationship of AUC values", "setting": "[3]; 10, 30, 100 mg/kg oral, both sexes", "value": "linear in both sexes"}, {"measurement": "plasma concentration decline", "setting": "[3]; both sexes, all doses", "value": "reached baseline levels after 24 h"}, {"measurement": "CL/F (apparent total clearance from plasma)", "setting": "[3]; [4]", "value": 30.04, "unit": "L/h"}, {"measurement": "λz (elimination rate constant)", "setting": "[3]; [4]", "value": 0.06, "unit": "h⁻¹"}, {"measurement": "CL/F (apparent total clearance from plasma)", "setting": "[3]; [5]", "value": 42.02, "unit": "L/h"}, {"measurement": "λz (elimination rate constant)", "setting": "[3]; [5]", "value": 0.10, "unit": "h⁻¹"}, {"measurement": "CL/F (apparent total clearance from plasma)", "setting": "[3]; [6]", "value": 51.54, "unit": "L/h"}, {"measurement": "λz (elimination rate constant)", "setting": "[3]; [6]", "value": 0.21, "unit": "h⁻¹"}, {"measurement": "CL/F (apparent total clearance from plasma)", "setting": "[3]; [7]", "value": 35.81, "unit": "L/h"}, {"measurement": "λz (elimination rate constant)", "setting": "[3]; [7]", "value": 0.15, "unit": "h⁻¹"}, {"measurement": "CL/F (apparent total clearance from plasma)", "setting": "[3]; male C57BL/6 mice, single oral dose 30 mg/kg", "value": 36.02, "unit": "L/h"}, {"measurement": "λz (elimination rate constant)", "setting": "[3]; male C57BL/6 mice, single oral dose 30 mg/kg, 30 mg/kg", "value": "0.21 h^−1 and 0.21. h^−1"}, {"measurement": "CL/F (apparent total clearance from plasma)", "setting": "[3]; [8]", "value": 48.79, "unit": "L/h"}, {"measurement": "λz (elimination rate constant)", "setting": "[3]; [8]", "value": 0.24, "unit": "h⁻¹"}]}]}
